Data on one molecule can be found in patent publication US6727287B2, “Toluene sulfonamide-containing anti-tumor composition and method of use thereof” (PTS International, Inc., priority 2001, dated 2004).

The data set has as its system normal (i.e., non-neoplastic) cells. The data set is described as follows: Exposure of normal (non-neoplastic) cells to para-toluene sulfonamide. As to conditions: normal (non-neoplastic) cells exposed to the compound.

Take `Cc1ccc(S(N)(=O)=O)cc1` [para-toluene sulfonamide]: the “histopathological changes in normal cells” value is listed as “almost no histopathological changes”.
